Residues, ends and D or L forms follow the SMILES beside them. *: point of attachment. Biotin = O=C1N[C@H]2[C@H](CS[C@H]2CCCCC(=O)*)N1
Key:
HeLa cells = test: Cell penetration and localization of biotinylated peptides; format: cell-based, human; conditions: 150 µM biotinylated peptide, 2 h, 37°C, streptavidin-peroxydase/DAB staining, microscopy; for Cell penetration: fixation
Description: A total of 4×10^4 exponentially proliferating HeLa cells growing in a sub confluent monolayer were seeded per well on a Lab-Tek and incubated at 37°C, 5% CO2. Biotinylated peptides were added 48 h later to the cells at different concentrations for different periods of time. Cells were washed twice in PBS, and fixed with absolute ethanol for 10 min at –20°C before addition of 100 µM of streptavidin HRP conjugate After 30 min incubation at 37°C, cells were rinsed twice in PBS and incubated with DAB for around 10 min. Cells were washed in distilled water and mounted for microscopic examination.

PP2A1 holoenzyme = test: Affinity chromatography of PP2A1 on Vpr-T-agarose column, phosphorylase a phosphatase assay; format: binding, pig; conditions: 16 µg PP2A1 on 1 mL column, buffer C pH 7.4, linear gradient to 1 M NaCl, phosphorylase a as substrate
Description: Figure 1 Analysis of HIV-1 Vpr and PP2A1 interaction. (A) 16 µg of PP2A1 holoenzyme purified from pig brain was loaded on a 1 mL HIV-1 strain 89.6-Vpr-T-agarose column equilibrated in buffer C (25 mM TrisHCl pH 7.4, 50 mM NaCl, 0.1 mM EDTA). The column was washed with 10 mL of buffer C and then developed with a 18 mL linear gradient of buffer C to buffer C plus 1 M NaCl. Phosphatase activity of collected fractions was assayed with phosphorylase a as substrat (1U = 1 pm of phosphate liberated by 10 µL of fraction/min). A major peak of phosphatase activity was detected, eluting at 0.3 M NaCl. (B) ECL revelation of PP2A binding assay on cellulose-bound Vpr peptides. 43 overlapping dodecapeptides with a two-amino acid shift scanning the entire 89.6-Vpr sequence (accession number: AAA81039) were synthesized on a cellulose membrane. The membrane was incubated with PP2A1 holoenzyme (upper panel) or PP2A-A subunit (lower panel) and subsequently with anti-PP2A antibodies followed by peroxydase-labelled anti-guinea pig antibodies. (C) Sequence of HIV-1 Vpr protein: sequence of the two PP2A-A binding sites are indicated in bold. These sequences correspond to overlapping sequences of positive dodecapeptides 29 to 32 (PP2A-A subunit incubation) or 39 to 41 (PP2A1 incubation). (D) Co-precipitation of DPT-Vpr peptides with PP2A1 in HeLa cell extracts. […]

Molecule | Cell penetration (HeLa cells) | Intra-cellular localization (HeLa cells) | NaCl concentration at which bound PP2A1 phosphatase activity elutes from the Vpr-T-agarose column (PP2A1 holoenzyme) [M NaCl]
N=C(N)NCCC[C@H](NC(=O)[C@H](CCCNC(=N)N)NC(=O)[C@H](CCC(N)=O)NC(=O)[C@H](CCCNC(=N)N)NC(=O)[C@H](CCCNC(=N)N)NC(=O)[C@H](CCCCN)NC(=O)[C@H](CCCCN)NC(=O)[C@H](CCCNC(=N)N)NC(=O)CNC(=O)[C@H](Cc1ccc(O)cc1)NC(=O)CCCC[C@@H]1SC[C@@H]2NC(=O)N[C@@H]21)C(=O)O [Tat, reference compound] (Biotin-YGRKKRRQRR-OH) | penetrate into HeLa cells | homogeneous cytoplasm labeling | –
CC[C@H](C)[C@H](NC(=O)CNC(=O)[C@@H](NC(=O)[C@H](CCCNC(=N)N)NC(=O)[C@H](CO)NC(=O)[C@H](Cc1c[nH]cn1)NC(=O)[C@H](CCCNC(=N)N)NC(=O)CCCC[C@@H]1SC[C@@H]2NC(=O)N[C@@H]21)[C@@H](C)CC)C(=O)N[C@H](C(=O)N[C@@H](CCC(N)=O)C(=O)N[C@@H](CCC(N)=O)C(=O)N[C@@H](CCCNC(=N)N)C(=O)N[C@@H](CCCNC(=N)N)C(=O)N[C@H](C(=O)N[C@@H](CCCNC(=N)N)C(=O)N[C@@H](CC(N)=O)C(=O)NCC(=O)O)[C@@H](C)O)[C@@H](C)CC [DPT-Vpr1] | penetrate into HeLa cells | homogeneous cytoplasm labeling | –
CC[C@H](C)[C@H](NC(=O)CNC(=O)[C@@H](NC(=O)[C@H](C)NC(=O)[C@H](CO)NC(=O)[C@H](Cc1c[nH]cn1)NC(=O)[C@H](C)NC(=O)CCCC[C@@H]1SC[C@@H]2NC(=O)N[C@@H]21)[C@@H](C)CC)C(=O)N[C@H](C(=O)N[C@@H](CCC(N)=O)C(=O)N[C@@H](CCC(N)=O)C(=O)N[C@@H](CCCNC(=N)N)C(=O)N[C@@H](CCCNC(=N)N)C(=O)N[C@@H](C)C(=O)N[C@@H](CCCNC(=N)N)C(=O)N[C@@H](CC(N)=O)C(=O)NCC(=O)O)[C@@H](C)CC [DPT-Vpr3] (Biotin-AHSAIGIIQQRRARNG-OH) | penetrate into HeLa cells | homogeneous cytoplasm labeling | –
Vpr-T: full length HIV-1 89.6-Vpr in a 6-his C-term tagged form, expressed in bacteria (protein, left off: His6, C-terminal, kept, full length HIV-1 89.6-Vpr in a 6-his C-term tagged form, expressed in bacteria) MEQAPEDQGPQREPYNDWTLELLEELKNEAVRHFPRIWLHSLGQHIYETYGDTWTGVEALIRILQQLLFIHFRIGCRHSRIGIIQQRRTRNGASKS | – | – | 0.3
